From US4537967A, “1-Oxo-1,2,3,4-tetrahydro-3-isoquinoline carboxylic acid derivatives” (Wakamoto Pharmaceutical Co., Ltd., priority 1982, dated 1985)

Key:
[1] = system: angiotensin converting enzyme (ACE); experiment: Inhibition of the angiotensin-induced rise in blood pressure in rats after oral administration (illustrative test, ACE inhibitory effect); format: in vivo, male rats (Spraque-Dawleg); conditions: angiotensin I 300 ng/kg and angiotensin II 100 ng/kg i.v., maximum blood pressure rise vs control
Description: (§1) The compounds [I] according to the present invention may be expected to be useful as a […], since they have an excellent ACE inhibitory effect. This has been well evidenced by an experiment using ACE extracted from rabbit lung and purified. The ACE inhibitory effect of the compounds of the present invention was determined according to the following illustrative test and the results will be shown in the following Table 1.
In this test, male rats (Spraque-Dawleg) of 250 to 350 g in weight were used, which were raised under conditions of free access to food and water.
The day before the test, each rat was narcotized by sodium pentobarbital (50 mg/kg) injected intraperitoneally. A polyethylene tube was inserted into a vein at the groin and fixed in order to introduce angiotensin and, further, another polyethylene tube was inserted into an artery at the groin and fixed to measure the blood pressure thereof. The blood pressure was determined by the use of an electronic sphygmomanometer (Nihon Kohden Kogyo Co., Ltd. type MP-4T).
Each rat was injected with 300 ng/kg of angiotensin I and 100 ng/kg of angiotensin II through the vein at the groin and the blood pressure recorded periodically and the maximum value of the rise in the blood pressure resulting from the injection of angiotensin was determined for use as a control.
Then, the percentage of inhibitory effect was determined by orally administering 13.8 μM/kg of a compound of the invention to each rat, and injecting 300 ng/kg of angiotensin I and 100 ng/kg of angiotensin II into the vein at the groin at periods of 20, 60 or 120 minutes after the administration of the compound, with maximum blood pressures being determined by periodically measuring the blood pressure and comparing each maximum value obtained with that of the controls.

[2] = target: T1, angiotensin converting enzyme (ACE) (Oryctolagus cuniculus, UniProt P12822); experiment: ACE inhibition in vitro with hippuryl-L-histidine-L-leucine as substrate (method of Biochemical Pharmacology, 20, 1637 (1971)); design: species or system rabbit (lung); conditions: read-out: 50% inhibition concentration (ID50)
T1 construct: ACE extracted from rabbit lung and purified; from tissue; host or cells: rabbit lung
T1 sequence (P12822 34-1310): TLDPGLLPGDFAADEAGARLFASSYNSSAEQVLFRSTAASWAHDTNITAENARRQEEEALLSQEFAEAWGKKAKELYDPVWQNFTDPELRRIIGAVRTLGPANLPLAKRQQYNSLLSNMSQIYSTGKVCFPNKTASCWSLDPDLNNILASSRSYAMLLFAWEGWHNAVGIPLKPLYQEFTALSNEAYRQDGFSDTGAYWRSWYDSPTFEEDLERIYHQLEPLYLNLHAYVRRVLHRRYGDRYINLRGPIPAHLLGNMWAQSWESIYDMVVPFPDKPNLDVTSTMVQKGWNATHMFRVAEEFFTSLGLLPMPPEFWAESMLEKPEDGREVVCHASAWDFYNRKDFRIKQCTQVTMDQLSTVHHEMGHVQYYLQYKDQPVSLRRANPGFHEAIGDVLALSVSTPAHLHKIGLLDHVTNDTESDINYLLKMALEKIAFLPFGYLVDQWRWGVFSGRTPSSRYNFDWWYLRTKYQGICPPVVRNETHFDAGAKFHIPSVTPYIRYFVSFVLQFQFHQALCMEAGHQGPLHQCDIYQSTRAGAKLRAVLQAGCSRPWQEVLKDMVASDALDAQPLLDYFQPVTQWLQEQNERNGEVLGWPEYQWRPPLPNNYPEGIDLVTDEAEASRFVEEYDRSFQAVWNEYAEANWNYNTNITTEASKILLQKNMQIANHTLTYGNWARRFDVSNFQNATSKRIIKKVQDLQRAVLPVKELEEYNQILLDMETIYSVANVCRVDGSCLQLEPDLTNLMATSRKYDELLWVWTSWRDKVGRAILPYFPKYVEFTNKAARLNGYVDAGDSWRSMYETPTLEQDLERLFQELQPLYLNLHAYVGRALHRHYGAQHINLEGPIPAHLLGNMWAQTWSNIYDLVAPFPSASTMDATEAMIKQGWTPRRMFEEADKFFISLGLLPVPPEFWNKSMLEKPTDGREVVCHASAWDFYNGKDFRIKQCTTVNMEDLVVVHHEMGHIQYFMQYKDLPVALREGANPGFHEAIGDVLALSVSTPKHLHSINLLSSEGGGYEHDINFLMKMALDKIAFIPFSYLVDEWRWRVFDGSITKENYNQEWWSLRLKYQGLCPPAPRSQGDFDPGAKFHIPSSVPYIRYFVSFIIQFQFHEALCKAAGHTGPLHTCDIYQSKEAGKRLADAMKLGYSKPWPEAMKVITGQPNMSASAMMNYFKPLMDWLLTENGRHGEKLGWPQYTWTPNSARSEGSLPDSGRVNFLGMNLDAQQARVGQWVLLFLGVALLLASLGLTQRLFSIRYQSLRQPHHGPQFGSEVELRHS
Description: as §1
The compounds of the present invention act to inhibite angiotensin converting enzyme which converts angiotensin I, produced by the action of the enzyme renin from angiotensinogen, to angiotensin II which acts as a pressor agent. Therefore, these compounds may be expected to be effective in the treatment of hypertension.

Row | Compound | Inhibition (%) ([1]; 20 min after oral 13.8 μM/kg) | Inhibition (%) ([1]; 60 min after oral 13.8 μM/kg) | Inhibition (%) ([1]; 120 min after oral 13.8 μM/kg) | IC50 [2]
1 | O=C(O)C1Cc2ccccc2C(=O)N1C(=O)CCS (centres unmarked) [Example 1, 2-(3-mercaptopropionyl)-1-oxo-1,2,3,4-tetrahydro-3-isoquinoline carboxylic acid] | 81% | 78% | 59% | 51 nM
2 | CC(CS)C(=O)N1C(=O)c2ccccc2CC1C(=O)O (centres unmarked) [Example 2, 2-(3-mercapto-2-methylpropionyl)-1-oxo-1,2,3,4-tetrahydro-3-isoquinoline carboxylic acid] | 83% | 70% | 72% | 73 nM
